Measurements: patent US20090123391A1, “Novel Formulations” (3M INNOVATIVE PROPERTIES COMPANY, priority 2006, published 2009)

Columns and labels:
[1] = Andersen Cascade Impactor (ACI) fine particle fraction of MDI; type: physicochemical; conditions: for Fine Particle Fraction (FPF) expressed as percentage of 25 μg, the total dose target: Example 1: Compound A MDI, 25 μg/act; for Fine Particle Fraction (FPF) expressed as percentage of 25 μg, the total dose target / Fine Particle Fraction expressed as a percentage of the total dose target, for Compound B, 10 μg and for the Compound A, 25 μg / Fine Particle Fraction (FPF) expressed as a percentage of the total dose target, for Compound C, 12.5 μg and for Compound A, 25 μg / Fine Particle Fraction (FPF) expressed as percentage of the total dose target of Compound E, 100 μg and for Compound A, 50 μg: HFA 134a; for Fine Particle Fraction expressed as a percentage of the total dose target, for Compound B, 10 μg and for the Compound A, 25 μg: Example 2: Compound A in combination with Compound B; for Fine Particle Fraction expressed as a percentage of the total dose target, for Compound B, 10 μg and for the Compound A, 25 μg / Fine Particle Fraction (FPF) expressed as a percentage of the total dose target, for Compound C, 12.5 μg and for Compound A, 25 μg: MDI; for Fine Particle Fraction (FPF) expressed as a percentage of the total dose target, for Compound C, 12.5 μg and for Compound A, 25 μg: Example 3: Compound A in combination with Compound C, 25/12.5 μg/act; for Fine Particle Fraction (FPF) expressed as a percentage of the total dose target, for Compound D, 100 μg, and for Compound A, 100 μg: Example 4: Compound A in combination with Compound D, HFA-134a MDI 100/100 μg/act; for Fine Particle Fraction (FPF) expressed as percentage of the total dose target of Compound E, 100 μg and for Compound A, 50 μg: Example 5: Compound E in combination with Compound A, MDI 100/50 μg/act
From the text: The fine particle fraction of the aerosol formulations according to the invention may be measured by conventional techniques, for example, by cascade impaction by measuring particle size distribution. The Cascade Impactor is designed to mimic the human buccal cavity and bronchial tract and the cascade Impactor test is designed to reveal the amount of deposition of inhaled drug substance at various stages thereof. As used herein reference to the “cascade impaction” assay means determination of the deposition of the emitted dose in pressurised inhalations as defined in European Pharmacopoeia, Section 2.9.18, 5th edition “Preparations for Inhalation, Apparatus D”. Such techniques enable the “respirable fraction” of the aerosol formulations to be calculated. One method used to calculate the “respirable fraction” is by reference to “fine particle fraction” which is the amount of active ingredient collected in stages 3 to 5 (aerodynamic diameter 1.1-4.7 μm) which represents the lung, per actuation expressed as a percentage of the total amount of active ingredient delivered per actuation using the cascade impactor method described above. Earlier stages represent the aerosol device itself, the throat and the upper reaches of the bronchial tract, and the later stages representing potential systemic absorption through the wall of the lung which may cause serious side effects.
The Andersen Cascade Impactor Mark II (ACI) was assembled and the flow rate was set to 28.3 L/min. The units were primed four times with the test actuator prior to dose collection, shaking between actuations. Between 5 and 20 actuations were collected in the ACI assembly. The ACI was disassembled and the components were rinsed with an appropriate amount of solvent that ensures dissolution of all formulation ingredients. The rinsate was collected for analysis by conventional HPLC analysis.

[2] = Dose Through Unit (DTU) dose uniformity of MDI; type: physicochemical; conditions: for overall mean dose of medicament delivered through the actuator, combining beginning and end of use doses / overall mean dose delivered through the actuator, combined beginning and end of use: HFA 134a; for overall mean dose delivered through the actuator, combining beginning and end of use: Example 4: Compound A in combination with Compound D, HFA-134a MDI 100/100 μg/act, target output compound D 90 μg, compound A 90 μg; for overall mean dose delivered through the actuator, combined beginning and end of use: Example 5: Compound E in combination with Compound A, MDI 100/50 μg/act, target output Compound E 90 μg, Compound A 45 μg
Procedure: The dose collection apparatus (500 ml separatory funnel with a cotton plug) was assembled and the flow rate was set to 20 L/min. Test units were stored at ambient conditions for two weeks after manufacture prior to DTU testing. For the testing at the beginning of the unit, the MDIs were primed two times with a priming actuator and four times to waste with the test actuator, shaking the units between each actuation. Two test actuations were collected in the dose collection apparatus, shaking the unit between actuations. The collection apparatus was rinsed with an appropriate volume of diluent, and the rinsate with the collected dose was analyzed by conventional HPLC analysis. For end of unit testing, the MDIs were actuated an additional 48 times to waste, shaking between each actuation. The MDIs were then actuated four times to waste through a new test actuator. Two test actuations were then collected in the dose collection apparatus, shaking the unit between actuations. The collection apparatus was rinsed with an appropriate volume of diluent, and the rinsate with the collected dose was analyzed by conventional HPLC analysis.
The reported results are the average of ten units at both the beginning and end of unit use.

[3] = 0.1% w/w of polymer of formula (II), 12 Week at 40° C./75% relative humidity
[4] = 0.1% w/w of polymer of formula (II), Initial
[5] = surfactant-free, 12 Week at 40° C./75% relative humidity

Structure (SMILES): C[C@@H]1C[C@H]2[C@@H]3C[C@H](F)C4=CC(=O)C=C[C@]4(C)[C@@]3(F)[C@@H](O)C[C@]2(C)[C@@]1(OC(=O)c1ccco1)C(=O)SCF [Compound A, 6α, 9α-Difluoro-17α-[(2-furanylcarbonyl)oxy]-11β-hydroxy-16α-methyl-3-oxo-androsta-1,4-diene-17β-carbothioic acid S-fluoromethyl ester]
- Fine Particle Fraction (FPF) expressed as percentage of 25 μg, the total dose target [1, 3]: 22%
- Fine Particle Fraction (FPF) expressed as percentage of 25 μg, the total dose target [1, 4]: 24%
- Fine Particle Fraction (FPF) expressed as percentage of 25 μg, the total dose target [1, 5]: 16%
- Fine Particle Fraction (FPF) expressed as percentage of 25 μg, the total dose target ([1]; surfactant-free, Initial): 17%
- Fine Particle Fraction expressed as a percentage of the total dose target, for Compound B, 10 μg and for the Compound A, 25 μg [1, 3]: 35%
- Fine Particle Fraction expressed as a percentage of the total dose target, for Compound B, 10 μg and for the Compound A, 25 μg [1, 4]: 32%
- Fine Particle Fraction expressed as a percentage of the total dose target, for Compound B, 10 μg and for the Compound A, 25 μg [1, 5]: 18%
- Fine Particle Fraction expressed as a percentage of the total dose target, for Compound B, 10 μg and for the Compound A, 25 μg ([1]; surfactant-free, Initial): 18%
- Fine Particle Fraction (FPF) expressed as a percentage of the total dose target, for Compound C, 12.5 μg and for Compound A, 25 μg ([1]; 0.1% w/w polymer of formula (II), 12 Week 40° C./75 relative humidity): 20%
- Fine Particle Fraction (FPF) expressed as a percentage of the total dose target, for Compound C, 12.5 μg and for Compound A, 25 μg ([1]; 0.1% w/w polymer of formula (II), Initial): 21%
- Fine Particle Fraction (FPF) expressed as a percentage of the total dose target, for Compound C, 12.5 μg and for Compound A, 25 μg ([1]; surfactant-free, 12 Week 40° C./75 relative humidity): 16%
- Fine Particle Fraction (FPF) expressed as a percentage of the total dose target, for Compound C, 12.5 μg and for Compound A, 25 μg ([1]; surfactant-free, Initial): 11%
- Fine Particle Fraction (FPF) expressed as a percentage of the total dose target, for Compound D, 100 μg, and for Compound A, 100 μg [1, 3]: 19%
- Fine Particle Fraction (FPF) expressed as a percentage of the total dose target, for Compound D, 100 μg, and for Compound A, 100 μg [1, 4]: 21%
- Fine Particle Fraction (FPF) expressed as percentage of the total dose target of Compound E, 100 μg and for Compound A, 50 μg [1, 3]: 22%
- Fine Particle Fraction (FPF) expressed as percentage of the total dose target of Compound E, 100 μg and for Compound A, 50 μg [1, 4]: 23%
- overall mean dose of medicament delivered through the actuator, combining beginning and end of use doses ([2]; Example 1: Compound A MDI, 25 μg/act, 0.1% w/w of polymer of formula (II), 12 Week at 40° C./75% relative humidity, target output 22.5 μg/act): 98%
- overall mean dose of medicament delivered through the actuator, combining beginning and end of use doses ([2]; Example 1: Compound A MDI, 25 μg/act, 0.1% w/w of polymer of formula (II), Initial, target output 22.5 μg/act): 98%
- overall mean dose of medicament delivered through the actuator, combining beginning and end of use doses ([2]; Example 1: Compound A MDI, 25 μg/act, surfactant-free, 12 Week at 40° C./75% relative humidity, target output 22.5 μg/act): 72%
- overall mean dose of medicament delivered through the actuator, combining beginning and end of use doses ([2]; Example 1: Compound A MDI, 25 μg/act, surfactant-free, Initial, target output 22.5 μg/act): 66%
- overall mean dose of medicament delivered through the actuator, combining beginning and end of use doses ([2]; Example 2: Compound A in combination with Compound B, MDI, 25/10 μg/act, 0.1% w/w of polymer of formula (II), 12 Week at 40° C./75% relative humidity, target output Compound B 8.5 μg, Compound A 22.5 μg): 110%
- overall mean dose of medicament delivered through the actuator, combining beginning and end of use doses ([2]; Example 2: Compound A in combination with Compound B, MDI, 25/10 μg/act, 0.1% w/w of polymer of formula (II), Initial, target output Compound B 8.5 μg, Compound A 22.5 μg): 107%
- overall mean dose of medicament delivered through the actuator, combining beginning and end of use doses ([2]; Example 2: Compound A in combination with Compound B, MDI, 25/10 μg/act, surfactant-free, 12 Week at 40° C./75% relative humidity, target output Compound B 8.5 μg, Compound A 22.5 μg): 62%
- overall mean dose of medicament delivered through the actuator, combining beginning and end of use doses ([2]; Example 2: Compound A in combination with Compound B, MDI, 25/10 μg/act, surfactant-free, Initial, target output Compound B 8.5 μg, Compound A 22.5 μg): 63%
- overall mean dose of medicament delivered through the actuator, combining beginning and end of use doses ([2]; Example 3: Compound A in combination with Compound C, MDI, 25/12.5 μg/act, 0.1% w/w polymer of formula (II), 12 Week at 40° C./75 relative humidity, target output Compound C 11.3 μg, Compound A 22.5 μg): 107%
- overall mean dose of medicament delivered through the actuator, combining beginning and end of use doses ([2]; Example 3: Compound A in combination with Compound C, MDI, 25/12.5 μg/act, 0.1% w/w polymer of formula (II), Initial, target output Compound C 11.3 μg, Compound A 22.5 μg): 101%
- overall mean dose of medicament delivered through the actuator, combining beginning and end of use doses ([2]; Example 3: Compound A in combination with Compound C, MDI, 25/12.5 μg/act, surfactant-free, 12 Week at 40° C./75 relative humidity, target output Compound C 11.3 μg, Compound A 22.5 μg): 76%
- overall mean dose of medicament delivered through the actuator, combining beginning and end of use doses ([2]; Example 3: Compound A in combination with Compound C, MDI, 25/12.5 μg/act, surfactant-free, Initial, target output Compound C 11.3 μg, Compound A 22.5 μg): 75%
- overall mean dose delivered through the actuator, combining beginning and end of use [2, 3]: 111%
- overall mean dose delivered through the actuator, combining beginning and end of use [2, 4]: 106%
- overall mean dose delivered through the actuator, combined beginning and end of use [2, 3]: 109%
- overall mean dose delivered through the actuator, combined beginning and end of use [2, 4]: 104%
